We go through 19 compounds from patent US20210220356A1, “DIHYDROPYRIMIDINE DERIVATIVES AND USES THEREOF IN THE TREATMENT OF HBV INFECTION OR OF HBV-INDUCED DISEASES” (Janssen Sciences Ireland Unlimited Company, priority 2018, published 2021).

One data set deals with HBV. The data set is described as follows: HBV inhibitory activity in HepG2.2.15 cells (HBV DNA in culture medium by q-PCR). The data set is classed as cell-based. The conditions noted are these: HepG2.2.15 cells, 40,000 cells/well, 6 days of compound treatment, HBV DNA in culture medium by q-PCR, highest concentration 10 uM; read-out: EC50. Here is the method:
(§1) • HepG2.2.15 (the HepG2.2.15 cell line can be produced by transfection of the HepG2 cell line as described in Sells, Chen, and Acs 1987 (Proc. Natl. Acad. Sci. USA 84: 1005-1009), and the HepG2 cell line is available from ATCC® under number HB-8065™)
(§2) Seed the cell HepG2.2.15 cells into 96-well plate in 2% FBS culture medium at the density of 40,000 cells/well and 5,000 cells/well for HBV inhibitory activity and cytotoxicity determination, respectively. After seeding, incubate the cell plates at 37° C., 5% CO2 overnight. The next day, medium containing compounds is added to the cell to treat the cells for 6 days with medium refreshed once in the middle of the treatment. 8 dose points with 3 folds dilution of each compound were adopted and the highest concentration of the compounds is 10 uM and 100 uM for HBV inhibitory activity and cytotoxicity determination, respectively.
The HBV DAN change in the cell culture medium induced by the compounds is measured by q-PCR method. Briefly, the HBV DNA in the culture medium is extracted using QIAamp 96 DNA Blood Kit according to the manual and then quantified by q-PCR using the primers and probe in the table below.
(§3) EC50 and CC50 values are calculated by the GRAPHPAD PRISM software.

Another data set deals with HepG2.2.15 cells. The data set is described as follows: Cytotoxicity determination in HepG2.2.15 cells (CCK-8). In kind it is cell-based. The conditions noted are these: HepG2.2.15 cells, 5,000 cells/well, 6 days of compound treatment, CCK-8 absorbance 450 nm, highest concentration 100 uM. As for the experimental part: as §1, §2
After 6 days of compounds treatment, add 20 μl CCK-8 reagents to each well of cytotoxicity assay plates, incubate the plate at 37° C., 5% CO2 for 2.5 h and measure the absorbance at 450 nm wavelength, at the same time read the absorbance at 630 nm wavelength as reference.
as §3

Turning to `COC(=O)C1=C(C2CCc3nn(CCC(=O)O)cc3C2)NC(c2nccs2)=NC1c1ccc(F)cc1Cl` (single isomer, unassigned) [Compound 47b, 3-(5-(6-(2-Chloro-4-fluorophenyl)-5-(methoxycarbonyl)-2-(thiazol-2-yl)-3,6-dihydropyrimidin-4-yl)-4,5,6,7-tetrahydro-2H-indazol-2-yl)propanoic acid], in the data set on HBV, the EC50 is 0.47 µM. The compound further showed a CC50 with HepG2.2.15 cells of 37.7 µM.
In the same order, the values of `CCOC(=O)C1=C(C2CCc3nn(CCC(=O)O)cc3C2)NC(c2nccs2)=NC1c1ccc(F)cc1C` (single isomer, unassigned) [Compound 38b, 3-(5-(5-(Ethoxycarbonyl)-6-(4-fluoro-2-methylphenyl)-2-(thiazol-2-yl)-3,6-dihydropyrimidin-4-yl)-4,5,6,7-tetrahydro-2H-indazol-2-yl)propanoic acid] are 0.667 µM and 22.9 µM.
Turning to `COC(=O)C1=C(C2CCc3nc([C@H]4C[C@H](C(=O)O)C4)oc3C2)NC(c2nccs2)=NC1c1ccc(F)c(F)c1Cl` (single isomer, unassigned) [Compound 72c, (trans)-3-(6-(6-(2-Chloro-3,4-difluorophenyl)-5-(methoxycarbonyl)-2-(thiazol-2-yl)-3,6-dihydropyrimidin-4-yl)-4,5,6,7-tetrahydrobenzo[d]oxazol-2-yl)cyclobutanecarboxylic acid], in the data set on HBV, the EC50 amounted to 0.0902 µM. The compound also yielded a 50% cytotoxic concentration (CC50) with HepG2.2.15 cells of 8.7 µM.
For `COC(=O)C1=C(C2CCc3nn(CCC(=O)O)cc3C2)NC(c2nccs2)=NC1c1ccc(F)c(F)c1Cl` (single isomer, unassigned) [Compound 70d, 3-(-5-(6-(2-chloro-3,4-difluorophenyl)-5-(methoxycarbonyl)-2-(thiazol-2-yl)-3,6-dihydropyrimidin-4-yl)-4,5,6,7-tetrahydro-2H-indazol-2-yl)propanoic acid] the same measures were 0.00803 µM and 24.3 µM.
`COC(=O)C1=C(C2CCc3nn(CCC(=O)O)cc3C2)NC(c2nccs2)=NC1c1cccc(F)c1Br` (single isomer, unassigned) [Compound 45c, 3-(5-(6-(2-Bromo-3-fluorophenyl)-5-(methoxycarbonyl)-2-(thiazol-2-yl)-3,6-dihydropyrimidin-4-yl)-4,5,6,7-tetrahydro-2H-indazol-2-yl)propanoic acid]: the EC50 in the data set on HBV stood at 0.0473 µM. For the same compound, the CC50 in the data set on HepG2.2.15 cells was 32.2 µM.
In the same order, the values of `CCOC(=O)C1=C(C2CCc3nn(CCC(=O)O)cc3C2)NC(c2nccs2)=NC1c1cccc(F)c1C` (single isomer, unassigned) [Compound 41c, 3-(5-(5-(Ethoxycarbonyl)-6-(3-fluoro-2-methylphenyl)-2-(thiazol-2-yl)-3,6-dihydropyrimidin-4-yl)-4,5,6,7-tetrahydro-2H-indazol-2-yl)propanoic acid] are 0.0304 µM and 14.4 µM.
For `COC(=O)C1=C(C2CCc3nn(CCC(=O)O)cc3C2)NC(c2nccs2)=NC1c1ccc(F)c(F)c1Br` (single isomer, unassigned) [Compound 46d, 3-(5-(6-(2-Bromo-3,4-difluorophenyl)-5-(methoxycarbonyl)-2-(thiazol-2-yl)-3,6-dihydropyrimidin-4-yl)-4,5,6,7-tetrahydro-2H-indazol-2-yl)propanoic acid] the same measures were 0.0136 µM and 10.7 µM.
In the same order, the values of `CCOC(=O)C1=C(C2CCc3nn(CCC(=O)O)cc3C2)NC(c2nccs2)=NC1c1ccc(F)c(F)c1Cl` (single isomer, unassigned) [Compound 34d, 3-(5-(6-(2-chloro-3,4-difluorophenyl)-5-(ethoxycarbonyl)-2-(thiazol-2-yl)-3,6-dihydropyrimidin-4-yl)-4,5,6,7-tetrahydro-2H-indazol-2-yl)propanoic acid] are 0.146 µM and 20.6 µM.
`COC(=O)C1=C(C2CCc3nc([C@H]4CC[C@H](C(=O)O)CC4)oc3C2)NC(c2nccs2)=NC1c1ccc(F)c(F)c1Cl` (single isomer, unassigned) [Compound 86d, (trans)-4-(6-(6-(2-chloro-3,4-difluorophenyl)-5-(methoxycarbonyl)-2-(thiazol-2-yl)-3,6-dihydropyrimidin-4-yl)-4,5,6,7-tetrahydrobenzo[d]oxazol-2-yl)cyclohexanecarboxylic acid]: the EC50 in the data set on HBV is 0.0614 µM. Besides, it took 4.3 µM to reach half-maximal cytotoxicity in the data set with HepG2.2.15 cells (CC50).
For `COC(=O)C1=C(C2CCc3nn(CCC(=O)O)cc3C2)NC(c2nccs2)=NC1c1cccc(F)c1Cl` (single isomer, unassigned) [Compound 44c, 3-(5-(6-(2-Chloro-3-fluorophenyl)-5-(methoxycarbonyl)-2-(thiazol-2-yl)-3,6-dihydropyrimidin-4-yl)-4,5,6,7-tetrahydro-2H-indazol-2-yl)propanoic acid] the same measures were 0.0329 µM and 36.7 µM.
As to `CCOC(=O)C1=C(C2CCc3oc(CCC(=O)O)nc3C2)NC(c2nccs2)=NC1c1ccc(F)c(F)c1Cl` (single isomer, unassigned) [Compound 57f, 3-(5-(6-(2-Chloro-3,4-difluorophenyl)-5-(ethoxycarbonyl)-2-(thiazol-2-yl)-3,6-dihydropyrimidin-4-yl)-4,5,6,7-tetrahydrobenzo[d]oxazol-2-yl)propanoic acid], the EC50 with HBV turned out to be 0.0908 µM. This compound also gave a CC50 in the data set with HepG2.2.15 cells of 12.6 µM.
For `CCOC(=O)C1=C(C2CCc3nn(CCC(=O)O)cc3C2)NC(c2nccs2)=NC1c1ccc(F)cc1Cl` (single isomer, unassigned) [Compound 37d, 3-(5-(6-(2-Chloro-4-fluorophenyl)-5-(ethoxycarbonyl)-2-(thiazol-2-yl)-3,6-dihydropyrimidin-4-yl)-4,5,6,7-tetrahydro-2H-indazol-2-yl)propanoic acid] the same measures were 0.88 µM and 18.9 µM.
For `CCOC(=O)C1=C(C2CCc3cn(CCC(=O)O)nc3C2)NC(c2nccs2)=NC1c1ccc(F)c(F)c1Cl` (single isomer, unassigned) [Compound 61a, 3-(6-(6-(2-Chloro-3,4-difluorophenyl)-5-(ethoxycarbonyl)-2-(thiazol-2-yl)-3,6-dihydropyrimidin-4-yl)-4,5,6,7-tetrahydro-2H-indazol-2-yl)propanoic acid] the same measures were 0.0612 µM and 4.8 µM.
In the same order, the values of `COC(=O)C1=C(C2CCc3nn(CCC(=O)O)cc3C2)NC(c2nccs2)=NC1c1ccc(F)cc1Br` (single isomer, unassigned) [Compound 48b, 3-(5-(6-(2-Bromo-4-fluorophenyl)-5-(methoxycarbonyl)-2-(thiazol-2-yl)-3,6-dihydropyrimidin-4-yl)-4,5,6,7-tetrahydro-2H-indazol-2-yl)propanoic acid] are 0.6 µM and 80 µM.
For `CCOC(=O)C1=C(C2CCc3nn(C(C)CC(=O)O)cc3C2)NC(c2nccs2)=NC1c1ccc(F)c(F)c1Cl` (single isomer, unassigned) [Compound 52b, 3-(5-(6-(2-chloro-3,4-difluorophenyl)-5-(ethoxycarbonyl)-2-(thiazol-2-yl)-3,6-dihydropyrimidin-4-yl)-4,5,6,7-tetrahydro-2H-indazol-2-yl)butanoic acid], the CC50 in the data set on HepG2.2.15 cells is 5.8 µM.
`CCOC(=O)C1=C(C2Cc3cn(CCC(=O)O)nc3C(C)(C)C2)NC(c2nccs2)=NC1c1ccc(F)c(F)c1Cl` (stereo not shown) [Compound 55c, 3-(5-(6-(2-chloro-3,4-difluorophenyl)-5-(ethoxycarbonyl)-2-(thiazol-2-yl)-3,6-dihydropyrimidin-4-yl)-7,7-dimethyl-4,5,6,7-tetrahydro-2H-indazol-2-yl)propanoic acid]: the EC50 with HBV is 0.0095 µM. This compound also gave a CC50 with HepG2.2.15 cells of 7.1 µM.
In the same order, the values of `CCOC(=O)C1=C(C2CCc3nn(CCC(=O)O)cc3C2)NC(c2ncc(F)cc2F)=NC1c1ccc(F)c(F)c1Cl` (single isomer, unassigned) [Compound 43c, 3-(5-(6-(2-Chloro-3,4-difluorophenyl)-2-(3,5-difluoropyridin-2-yl)-5-(ethoxycarbonyl)-3,6-dihydropyrimidin-4-yl)-4,5,6,7-tetrahydro-2H-indazol-2-yl)propanoic acid] are 0.0059 µM and 29.9 µM.
For `CCOC(=O)C1=C(C2CCc3nn(CC(C)(C)C(=O)O)cc3C2)NC(c2nccs2)=NC1c1ccc(F)c(F)c1Cl` (single isomer, unassigned) [Compound 53b, 3-(5-(6-(2-Chloro-3,4-difluorophenyl)-5-(ethoxycarbonyl)-2-(thiazol-2-yl)-3,6-dihydropyrimidin-4-yl)-4,5,6,7-tetrahydro-2H-indazol-2-yl)-2,2-dimethylpropanoic acid] the same measures were 0.104 µM and 11.9 µM.
For `CCOC(=O)C1=C(C2CCc3nn(CCC(=O)O)cc3C2)NC(c2nccs2)=NC1c1ccc(F)c(F)c1Cl` (single isomer, unassigned) [Compound 34c, 3-(5-(6-(2-chloro-3,4-difluorophenyl)-5-(ethoxycarbonyl)-2-(thiazol-2-yl)-3,6-dihydropyrimidin-4-yl)-4,5,6,7-tetrahydro-2H-indazol-2-yl)propanoic acid] the same measures were less than 0.0046 µM and 14.9 µM.
